According to US7348318B2, “α-Amino-N-(diaminophosphinyl)lactam derivatives” (priority 2002, dated 2008):
Structures can show the parent of a compound that is named as a salt.

Assays:
[1] = molecular target: T1, dipeptidyl peptidase IV (Rattus norvegicus, UniProt P14740); experiment: biochemical; settings: glycyl·prolyl·β-naphthylamide, pH 7.2, 37° C., 1 hour, read-out: Dipeptidyl peptidase IV 50% inhibition activity value (converted)
T1 construct: partially purified from rat kidney homogenate by ammonium sulfate fractionation; from tissue; host or cells: rat kidney

[2] = tested on: ICR strain male mice (Crj:CD-1); experiment: Test for evaluating efficacy in drug-induced leukopenia (cyclophosphamide); format: in vivo; settings: for number of leukocytes: cyclophosphamide 200 mg/kg i.p. Day 0
Description: The efficacy of the compound of Example 1 in drug-induced leukopenia was evaluated according to the method of Okabe et al. (Yakuri to Chiryo (Pharmacology and Treatment), Vol. 19, No. 6, p. 55, 1991).
ICR strain male mice (Crj:CD-1) aged 8 weeks were used in the test. The animals were divided into three groups of 3 or 4 animals each. On Day 0, cyclophosphamide was intraperitoneally administered once to all the groups in a dose of 200 mg/kg. From the next day, the following were intravenously and repeatedly administered to the groups, respectively, for 5 days (Days 1 to 5); a first group (a control group): physiological saline, a second group: the compound of Example 1 (30 mg/kg/day), and a third group: the compound of Example 1 (100 mg/kg/day). Blood was drawn from the orbital vein on Day 0 (before the administration of cyclophosphamide) and Days 2, 4, 6, 8 and 10, and the number of leukocytes was periodically measured to investigate the leukocyte-increasing effect of the compound of Example 1 on leukopenia induced by cyclophosphamide.

[3] = tested on: ICR strain male mice (Crj:CD-1); experiment: Test for investigating the increase of leukocytes and the decrease of platelets in normal mice; format: in vivo; settings: for Number of platelets / number of leukocytes: blood drawn day after last administration
Description: ICR strain male mice (Crj:CD-1) aged 8 weeks were used in the test. The animals were divided into 5 groups of 3 to 4 animals each. The following were intravenously and repeatedly administered to the groups, respectively, for 5 days; a first group: physiological saline as solvent, a second group: the compound of Example 45 (hydrochloride of the compound of Example 1) (10 mg/kg/day), a third group: the compound of Example 45 (50 mg/kg/day), a fourth group: the compound of Example 45 (250 mg/kg/day), and a fifth group: sulphostin (WO 99/25719 and JP-A-2000-327689; (3S, PR)-3-amino-1-amino(sulfoamino)phosphinyl-2-piperidone) (50 mg/kg/day). On the day subsequent to the last day in the administration period, blood was drawn from the abdominal aorta under anesthesia and the number of leukocytes and the number of platelets were measured.

[4] = normal mice, 10 mg/kg/day i.v. for 5 days
[5] = normal mice, 50 mg/kg/day i.v. for 5 days
[6] = normal mice, 250 mg/kg/day i.v. for 5 days

T1 sequence (P14740 whole entry): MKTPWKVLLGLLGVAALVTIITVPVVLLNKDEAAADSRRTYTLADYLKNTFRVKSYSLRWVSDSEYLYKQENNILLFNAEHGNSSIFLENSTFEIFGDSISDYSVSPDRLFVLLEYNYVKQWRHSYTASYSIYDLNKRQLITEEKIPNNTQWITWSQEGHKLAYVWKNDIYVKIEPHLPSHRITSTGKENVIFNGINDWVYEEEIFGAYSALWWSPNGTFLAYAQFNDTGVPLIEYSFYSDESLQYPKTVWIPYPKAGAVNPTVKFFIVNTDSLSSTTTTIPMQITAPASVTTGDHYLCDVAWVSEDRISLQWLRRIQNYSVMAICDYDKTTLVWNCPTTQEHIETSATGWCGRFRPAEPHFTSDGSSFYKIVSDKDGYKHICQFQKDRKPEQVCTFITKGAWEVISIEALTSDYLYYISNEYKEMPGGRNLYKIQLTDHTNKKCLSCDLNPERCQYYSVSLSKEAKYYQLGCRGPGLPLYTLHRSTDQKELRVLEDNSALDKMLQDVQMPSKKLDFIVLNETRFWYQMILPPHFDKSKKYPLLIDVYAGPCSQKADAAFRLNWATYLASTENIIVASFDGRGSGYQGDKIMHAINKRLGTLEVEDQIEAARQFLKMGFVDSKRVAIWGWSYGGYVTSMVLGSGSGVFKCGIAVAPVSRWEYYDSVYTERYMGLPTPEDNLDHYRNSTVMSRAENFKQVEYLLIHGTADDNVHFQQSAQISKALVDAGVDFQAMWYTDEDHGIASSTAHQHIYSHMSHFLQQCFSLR

SMILES: CCCNP(N)(=O)N1CCC[C@H](N)C1=O (mixture of isomers) [Example 15, (3S, P (RS))-3-amino-1-amino(n-propylamino)phosphinyl-2-piperidone]
- IC50 [1]: 7260 nM

SMILES: N[C@H]1CCCN(P(N)(=O)NC(=O)c2ccccc2)C1=O (mixture of isomers) [Example 39, (3S, P (RS))-3-amino-1-amino(benzoylamino)phosphinyl-2-piperidone]
- IC50 [1]: 2400 nM

SMILES: CCCC(=O)NP(N)(=O)N1CCC[C@H](N)C1=O (mixture of isomers) [Example 51, (3S, P (SR))-3-amino-1-amino(n-butanoylamino)phosphinyl-2-piperidone]
- IC50 [1]: 1140 nM

SMILES: CC(C)(C)CC(=O)NP(N)(=O)N1CCC[C@H](N)C1=O (mixture of isomers) [Example 53, (3S, P (SR))-3-amino-1-amino(t-butylacetylamino)phosphinyl-2-piperidone]
- IC50 [1]: 1480 nM

SMILES: N[C@H]1CCCN(P(N)(=O)NC(=O)C2CCCCC2)C1=O (mixture of isomers) [Example 55, (3S, P (SR))-3-amino-1-amino(cyclohexanecarbonylamino)phosphinyl-2-piperidone]
- IC50 [1]: 1590 nM

SMILES: N[C@H]1CCCN(P(N)(=O)NC(=O)COc2ccccc2)C1=O (mixture of isomers) [Example 57, (3S, P (SR))-3-amino-1-amino(phenoxyacetylamino)phosphinyl-2-piperidone]
- IC50 [1]: 187 nM

SMILES: N[C@H]1CCCN(P(N)(=O)NC(=O)CCc2ccccc2)C1=O (mixture of isomers) [Example 59, (3S, P (SR))-3-amino-1-amino(3-phenylpropanoylamino)phosphinyl-2-piperidone]
- IC50 [1]: 894 nM

SMILES: COc1ccc(C(=O)NP(N)(=O)N2CCC[C@H](N)C2=O)cc1 (mixture of isomers) [Example 61, (3S, P (SR))-3-amino-1-amino(4-methoxybenzoylamino)phosphinyl-2-piperidone]
- IC50 [1]: 1070 nM

SMILES: N[C@H]1CCCN(P(N)(=O)Nc2ccccc2)C1=O (single isomer, unassigned) [Example 17, (3S, P (R or S))-3-amino-1-amino(phenylamino)phosphinyl-2-piperidone]
- IC50 [1]: 5590 nM

SMILES: CC(=O)NP(N)(=O)N1CCC[C@H](N)C1=O (single isomer, unassigned) [Example 48, (3S, P (R or S))-3-amino-1-amino(acetylamino)phosphinyl-2-piperidone ½ fumarate]
- IC50 [1]: 1620 nM

SMILES: N[C@H]1CCCN(P(N)(N)=O)C1=O [Example 1, (3S)-3-amino-1-diaminophosphinyl-2-piperidone]
- number of leukocytes ([2]; 30 mg/kg/day i.v. Days 1 to 5, Day 0 (before cyclophosphamide)): 33 ± 7.8 ×100/millimeter cube
- number of leukocytes ([2]; 30 mg/kg/day i.v. Days 1 to 5, Day 2): 23 ± 14.2 ×100/millimeter cube
- number of leukocytes ([2]; 30 mg/kg/day i.v. Days 1 to 5, Day 4): 7 ± 1.8 ×100/millimeter cube
- number of leukocytes ([2]; 30 mg/kg/day i.v. Days 1 to 5, Day 6): 25 ± 6.2 ×100/millimeter cube
- number of leukocytes ([2]; 30 mg/kg/day i.v. Days 1 to 5, Day 8): 108 ± 52.8 ×100/millimeter cube
- number of leukocytes ([2]; 30 mg/kg/day i.v. Days 1 to 5, Day 10): 58 ± 16.1 ×100/millimeter cube
- number of leukocytes relative to Day 0 ([2]; 30 mg/kg/day, Day 0): 100%
- number of leukocytes relative to Day 0 ([2]; 30 mg/kg/day, Day 2): 70%
- number of leukocytes relative to Day 0 ([2]; 30 mg/kg/day, Day 4): 21%
- number of leukocytes relative to Day 0 ([2]; 30 mg/kg/day, Day 6): 76%
- number of leukocytes relative to Day 0 ([2]; 30 mg/kg/day, Day 8): 327%
- number of leukocytes relative to Day 0 ([2]; 30 mg/kg/day, Day 10): 176%
- number of leukocytes ([2]; 100 mg/kg/day i.v. Days 1 to 5, Day 0 (before cyclophosphamide)): 81 ± 38.7 ×100/millimeter cube
- number of leukocytes ([2]; 100 mg/kg/day i.v. Days 1 to 5, Day 2): 25 ± 8.3 ×100/millimeter cube
- number of leukocytes ([2]; 100 mg/kg/day i.v. Days 1 to 5, Day 4): 13 ± 6.8 ×100/millimeter cube
- number of leukocytes ([2]; 100 mg/kg/day i.v. Days 1 to 5, Day 6): 124 ± 144.2 ×100/millimeter cube
- number of leukocytes ([2]; 100 mg/kg/day i.v. Days 1 to 5, Day 8): 139 ± 36.7 ×100/millimeter cube
- number of leukocytes ([2]; 100 mg/kg/day i.v. Days 1 to 5, Day 10): 49 ± 7.3 ×100/millimeter cube
- number of leukocytes relative to Day 0 ([2]; 100 mg/kg/day, Day 0): 100%
- number of leukocytes relative to Day 0 ([2]; 100 mg/kg/day, Day 2): 31%
- number of leukocytes relative to Day 0 ([2]; 100 mg/kg/day, Day 4): 16%
- number of leukocytes relative to Day 0 ([2]; 100 mg/kg/day, Day 6): 153%
- number of leukocytes relative to Day 0 ([2]; 100 mg/kg/day, Day 8): 172%
- number of leukocytes relative to Day 0 ([2]; 100 mg/kg/day, Day 10): 60%
- effect in increasing the number of leukocytes (in words) ([2]; data on Day 8): very effective in increasing the number of leukocytes
- recovery of the number of leukocytes to the initial value after the administration of cyclophosphamide ([2]; groups treated with 30 and 100 mg/kg/day, control group requires 8 days): 6 days
- IC50 [1]: 88.5 nM

SMILES: N[C@H]1CCCN(P(=O)(Nc2ccccc2)Nc2ccccc2)C1=O [Example 11, (3S)-3-amino-1-bis(phenylamino)phosphinyl-2-piperidone]
- IC50 [1]: 43600 nM

SMILES: CN[C@H]1CCCN(P(N)(N)=O)C1=O [Example 22, (3S)-3-methylamino-1-diaminophosphinyl-2-piperidone]
- IC50 [1]: 1410 nM

SMILES: CCCN[C@H]1CCCN(P(N)(N)=O)C1=O [Example 25, (3S)-3-n-propylamino-1-diaminophosphinyl-2-piperidone]
- IC50 [1]: 3670 nM

SMILES: CC(C)N[C@H]1CCCN(P(N)(N)=O)C1=O [Example 28, (3S)-3-isopropylamino-1-diaminophosphinyl-2-piperidone]
- IC50 [1]: 17900 nM

SMILES: CCCCN[C@H]1CCCN(P(N)(N)=O)C1=O [Example 31, (3S)-3-n-butylamino-1-diaminophosphinyl-2-piperidone]
- IC50 [1]: 3750 nM

SMILES: NP(N)(=O)N1CCC[C@H](NCc2ccccc2)C1=O [Example 34, (3S)-3-benzylamino-1-diaminophosphinyl-2-piperidone]
- IC50 [1]: 3900 nM

SMILES: NP(N)(=O)N1CCC[C@H](NCc2ccco2)C1=O [Example 37, (3S)-3-furfurylamino-1-diaminophosphinyl-2-piperidone]
- IC50 [1]: 7710 nM

SMILES: N[C@@H]1CCCN(P(N)(N)=O)C1=O [Example 42, (3R)-3-amino-1-diaminophosphinyl-2-piperidone]
- IC50 [1]: 48.4 nM

SMILES: N[C@H]1CCCCN(P(N)(N)=O)C1=O [Example 43, (3S)-3-amino-1-diaminophosphinyl-2-perhydroazepinone]
- IC50 [1]: 107 nM

SMILES: Cl.N[C@H]1CCCN(P(N)(N)=O)C1=O [Example 45, (3S)-3-amino-1-diaminophosphinyl-2-piperidone hydrochloride]
- factor by which the number of leukocytes is larger than that of the control group ([3]; 10 mg/kg/day group): 4.2
- factor by which the number of leukocytes is larger than that of the control group ([3]; 50 mg/kg/day group): 3.8
- factor by which the number of leukocytes is larger than that of the control group ([3]; 250 mg/kg/day group): 6.7
- Number of platelets [3, 4]: 76.0 ± 7.8 ×10000/millimeter cube
- number of leukocytes [3, 4]: 25 ± 13 ×100/millimeter cube
- Number of platelets [3, 5]: 84.9 ± 8.3 ×10000/millimeter cube
- number of leukocytes [3, 5]: 23 ± 19 ×100/millimeter cube
- Number of platelets [3, 6]: 81.1 ± 8.0 ×10000/millimeter cube
- number of leukocytes [3, 6]: 40 ± 18 ×100/millimeter cube
- influence on the number of platelets (in words) ([3]; normal mice, all the groups (10, 50, 250 mg/kg/day)): did not decrease the number of platelets

SMILES: N[C@H]1CCCN([P@@](N)(=O)NS(=O)(=O)O)C1=O [sulphostin, (3S, PR)-3-amino-1-amino(sulfoamino)phosphinyl-2-piperidone, reference compound]
- number of platelets as compared with the control group ([3]; 50 mg/kg/day, decreased): 73%
- Number of platelets [3, 5]: 57.1 ± 5.1 ×10000/millimeter cube
- number of leukocytes [3, 5]: 15 ± 5 ×100/millimeter cube
